In PMC6050274, “Buparlisib is a brain penetrable pan-PI3K inhibitor” (Scientific Reports, 2018):

Assays:
[1] = target: T1, murine BCRP (Abcg2/Bcrp1) (Mus musculus, UniProt Q7TMS5); test: Concentration equilibrium transport assay (CETA), MDCK-Bcrp1; type: in vitro ADME; details: MDCK-Bcrp1, 100 nM
T1 construct: expressed in transfected cells; host or cells: MDCK (MDCK-Bcrp1)
T1 sequence (Q7TMS5 1-657): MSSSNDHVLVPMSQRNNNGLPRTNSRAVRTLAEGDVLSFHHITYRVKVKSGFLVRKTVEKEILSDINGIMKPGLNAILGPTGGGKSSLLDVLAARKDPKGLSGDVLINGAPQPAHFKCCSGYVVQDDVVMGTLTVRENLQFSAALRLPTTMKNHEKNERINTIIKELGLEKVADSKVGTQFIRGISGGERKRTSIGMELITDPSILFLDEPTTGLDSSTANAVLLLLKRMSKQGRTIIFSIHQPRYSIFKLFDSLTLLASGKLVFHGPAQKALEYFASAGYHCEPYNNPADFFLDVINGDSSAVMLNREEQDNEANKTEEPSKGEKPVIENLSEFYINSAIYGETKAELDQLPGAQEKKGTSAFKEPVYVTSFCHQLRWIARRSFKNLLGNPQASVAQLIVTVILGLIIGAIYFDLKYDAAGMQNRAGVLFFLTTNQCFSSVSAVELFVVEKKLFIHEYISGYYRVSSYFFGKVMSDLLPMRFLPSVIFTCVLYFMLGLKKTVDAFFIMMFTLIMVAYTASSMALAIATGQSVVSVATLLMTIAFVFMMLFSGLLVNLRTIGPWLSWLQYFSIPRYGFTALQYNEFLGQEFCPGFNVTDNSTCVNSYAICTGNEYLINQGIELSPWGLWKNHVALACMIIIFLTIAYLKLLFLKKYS
From the text: (§1) Figure 1 Analysis of buparlisib substrate affinity for ABC transporters using in vitro transport assays. (A) The chemical structure of buparlisib. (B) A conventional transport assay (CTA) using LLC-PK1 cells in presence of zosuquidar to block endogenous (porcine) P-gp activity. […] (C) Concentration equilibrium transport assays (CETAs) using MDCK or LLC cells that overexpress murine BCRP, (Bcrp1), human BCRP, murine P-gp (Mdr1a) or human P-gp (MDR1). […] The P-gp inhibitor zosuquidar was used in all MDCK cell lines to inhibit endogenous P-gp activity and in LLC cell lines to validate possible P-gp-mediated translocations. […]
(§2) Conventional bidirectional transport assays (CTAs) and concentration equilibrium transport assays (CETAs) were performed as described previously. […] Transwell leakiness was determined as Carboxyl-[^14C]-inulin translocation exceeding 1.5% per hour and these wells were excluded from the analysis. […]
(§3) As described in detail before, CETA results were analysed with the General linear model repeated measures procedure of SPSS (v22; SPSS Inc, Chicago, IL)[25]. […] The standard error of the oral bioavailability was calculated using the formula below: SEF=F(SEAUCp.o./AUCp.o.)^2+(SEAUCi.v./AUCi.v.)^2 Buparlisib concentrations in WT and transporter knockout mice in vivo were compared using one-way analysis of variance followed by post hoc Bonferroni tests. […]

[2] = target: T2, murine P-gp (Abcb1a/Mdr1a) (Mus musculus, UniProt P21447); test: Concentration equilibrium transport assay (CETA), LLC-Mdr1a; type: in vitro ADME; details: 100 nM
T2 construct: expressed in transfected cells; host or cells: LLC-PK1 (LLC-Mdr1a)
From the text: as §1, §2, §3

[3] = Plasma and brain levels after oral administration in wildtype mice; type: in vivo, FVB mice
Procedure: First, we could confirm that buparlisib also achieves excellent brain penetration after oral administration, since the observed brain-plasma ratio in WT FVB mice was in line with those obtained following i.v. administration (Figs 2C, 3A).
Figure 3 Buparlisib has excellent intracranial target engagement and oral bioavailability. (A) Buparlisib was orally administered to wildtype mice at a dose of 1 mg/kg, 2 mg/kg or 5 mg/kg. One hour after injection, blood and tissues were collected for LC-MS/MS analysis. Buparlisib plasma and brain levels increase dose-dependently, yielding similar and excellent brain-plasma ratios at all dose levels that were tested. (B) Immunoblotting of brain tissue lysates from (A). […] (C) Plasma-time curves of male and female wildtype mice following intravenous (2 mg/kg) or oral (5 mg/kg) administration. […] The oral bioavailability of buparlisib is excellent, since oral and intravenous administration yielded similar dose-adjusted AUCs (see Table 1). All data are represented as mean ± SD (n = 4).
The pharmacokinetics of buparlisib were analysed in WT, Abcg2^−/−, Abcb1a/b^−/− and Abcb1a/b; Abcg2^−/− FVB mice. All knockout mice strains have been developed within our institute[41]–[43]. For i.v. administration, buparlisib was dissolved in DMSO and injected at a dose of 2 mg/kg. For oral administration, buparlisib was formulated in DMSO:Cremophor EL:water (1:1:8 v/v/v) and administered at 1, 2 or 5 mg/kg as indicated. Tail vein bleeding was used to collect blood at intermediate time points, whereas at the last time point blood was drawn by cardiac puncture and various tissue were collected. Plasma was obtained from whole blood by centrifugation (5 min, 5,000 rpm, 4 °C). After weighing, tissues were homogenized using a FastPrep®-24 (MP-Biomedicals, NY) in 1% (w/v) bovine serum albumin in water. […]
Buparlisib was measured in samples from in vitro transport assays and in vivo pharmacokinetic studies using an LC-MS/MS system comprised of an UltiMate 3000 LC Systems (Dionex, Sunnyvale, CA) and an API 4000 mass spectrometer (Sciex, Framingham, MA). […]

T2 sequence (P21447 whole entry): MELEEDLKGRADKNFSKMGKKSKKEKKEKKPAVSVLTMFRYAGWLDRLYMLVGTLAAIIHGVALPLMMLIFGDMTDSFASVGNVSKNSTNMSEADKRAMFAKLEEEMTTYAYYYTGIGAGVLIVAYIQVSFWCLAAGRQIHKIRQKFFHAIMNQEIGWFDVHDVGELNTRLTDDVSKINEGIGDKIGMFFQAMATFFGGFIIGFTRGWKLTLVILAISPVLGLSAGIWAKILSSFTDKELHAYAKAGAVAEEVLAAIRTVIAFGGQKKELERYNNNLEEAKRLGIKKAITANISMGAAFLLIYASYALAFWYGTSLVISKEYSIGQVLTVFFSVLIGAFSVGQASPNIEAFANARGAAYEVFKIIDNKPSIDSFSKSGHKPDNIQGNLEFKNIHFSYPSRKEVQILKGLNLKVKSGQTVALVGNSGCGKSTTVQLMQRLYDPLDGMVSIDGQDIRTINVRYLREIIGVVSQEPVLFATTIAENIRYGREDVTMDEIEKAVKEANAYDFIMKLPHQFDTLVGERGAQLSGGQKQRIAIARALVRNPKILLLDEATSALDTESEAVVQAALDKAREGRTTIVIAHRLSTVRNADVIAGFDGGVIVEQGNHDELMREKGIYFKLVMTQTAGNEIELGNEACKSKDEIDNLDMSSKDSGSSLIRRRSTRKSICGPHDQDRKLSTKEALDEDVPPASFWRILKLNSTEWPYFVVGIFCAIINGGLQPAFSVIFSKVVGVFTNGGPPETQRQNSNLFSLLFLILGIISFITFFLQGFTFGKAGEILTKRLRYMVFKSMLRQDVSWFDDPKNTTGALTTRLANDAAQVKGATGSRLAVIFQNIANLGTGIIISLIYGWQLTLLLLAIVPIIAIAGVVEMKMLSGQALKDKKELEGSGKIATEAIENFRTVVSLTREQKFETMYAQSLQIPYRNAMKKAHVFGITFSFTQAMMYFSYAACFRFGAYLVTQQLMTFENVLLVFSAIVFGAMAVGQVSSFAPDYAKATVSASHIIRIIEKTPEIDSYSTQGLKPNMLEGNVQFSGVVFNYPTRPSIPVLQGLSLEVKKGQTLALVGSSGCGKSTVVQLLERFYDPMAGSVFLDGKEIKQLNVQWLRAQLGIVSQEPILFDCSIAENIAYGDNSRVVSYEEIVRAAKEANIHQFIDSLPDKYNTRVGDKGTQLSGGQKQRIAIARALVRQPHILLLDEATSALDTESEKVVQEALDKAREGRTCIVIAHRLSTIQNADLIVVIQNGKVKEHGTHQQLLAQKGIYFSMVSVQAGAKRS

Nc1cc(C(F)(F)F)c(-c2cc(N3CCOCC3)nc(N3CCOCC3)n2)cn1 [buparlisib]
substrate of murine BCRP [1]: very weak substrate
substrate of murine P-gp [2]: not a substrate
Kp at 1 h ([3]; FVB, mouse, brain/plasma, other: intravenous and oral, i.v. 2 mg/kg and oral 1, 2, 5 mg/kg (Figs 2C, 3A), read-out: brain-plasma ratio): 1.5 to 2
concentration at 1 h ([3]; FVB, mouse, plasma, 5 mg/kg oral, WT mice, 1 hour, read-out: plasma level): ~1200 ng/mL
change of plasma and brain concentrations with dose ([3]; oral 1, 2, 5 mg/kg, WT mice, 1 hour): dose-proportional increase
